Reference: ChEMBL document CHEMBL1201862, “PubChem BioAssay data set” (2004)
Active and inactive are the calls of the source.

Experiments:
[1] = alpha-synuclein stem-loop luciferase translation blockers – H4 neuroglioma cells, luminescence, confirmation (AID 1988); format: functional, cell-based
[2] = Luminescence Cell-Based Dose Confirmation HTS to Identify Inhibitors of Platelet Dense Granule Release. [Related pubchem assays: 1663 (Primary HTS), 1678 (Summary of Project)]; format: functional
[3] = Luminescence Cell-Based Dose Response HTS to Identify Inhibitors of 5'UTR Stem-Loop Driven Prion Protein mRNA Translation in H4 Neuroglioblastoma Cells. [Related pubchem assays: 1827 (Project Summary), 1813 (Primary HTS)]; format: functional
[4] = blockers of bursicon-stimulated LGR2 cAMP reporter – cell-based, HEK293, CRE-luciferase reporter, cherry pick, set 2, dose response (AID 743343); format: functional;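 also: transfected cells were stimulated with diluted bursicon conditioned medium after compound addition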
[5] = A549 cell cytotoxicity, dose response, cytotoxicity control, plate reader, cherry-pick, antagonist series (AID 743412); format: functional, cell-based
[6] = viability loss in HEK293 cells – cell-based, plate reader, cherry-picked samples, cytotoxicity control, dose response (AID 743446); format: functional
[7] = blockade of melanocortin 4 receptor signaling – cell-based, plate reader, cherry pick, counter-screen for LGR2 antagonist project, dose response (AID 743444); format: functional;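 also: transfected HEK 293 cells stimulated with alpha-MSH peptide; potency of inhibitors of the alpha-MSH evoked signal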
[8] = toxicity toward HepG2 liver cells – cell-based, plate reader, cherry-pick, antagonist series, cytotoxicity control, dose response (AID 743416); format: functional
[9] = biological target: T1, Type-1 angiotensin II receptor (Homo sapiens, UniProt P30556); assay: antagonism of angiotensin II type 1 receptor – cell-based, uHTS hits, selectivity assay for APJ receptor antagonist project, dose response (AID 463214); format: functional;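 also: antagonist potency against angiotensin II stimulated AT1 response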
T1 sequence (P30556 whole entry): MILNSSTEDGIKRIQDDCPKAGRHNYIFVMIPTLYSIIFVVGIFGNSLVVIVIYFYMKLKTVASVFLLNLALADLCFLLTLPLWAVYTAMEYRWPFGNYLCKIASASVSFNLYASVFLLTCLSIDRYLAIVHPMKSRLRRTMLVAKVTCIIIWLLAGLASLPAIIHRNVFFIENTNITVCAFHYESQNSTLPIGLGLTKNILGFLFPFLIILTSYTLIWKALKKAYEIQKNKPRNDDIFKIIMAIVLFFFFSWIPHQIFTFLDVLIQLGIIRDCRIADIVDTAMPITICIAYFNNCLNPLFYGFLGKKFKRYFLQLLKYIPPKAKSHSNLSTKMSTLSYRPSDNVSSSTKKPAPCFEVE

[10] = biological target: T2, Microphthalmia-associated transcription factor (Homo sapiens, UniProt O75030); assay: reducers of TRPM1 reporter luminescence, concentration series – cell-based, SK-MEL-5, cherry-picked, set 3, MITF inhibitor project, dose response (AID 493073); format: functional;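 also: SK-MEL-5 melanoma cells with luciferase driven by the MITF target TRPM1 promoter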
T2 sequence (O75030 whole entry): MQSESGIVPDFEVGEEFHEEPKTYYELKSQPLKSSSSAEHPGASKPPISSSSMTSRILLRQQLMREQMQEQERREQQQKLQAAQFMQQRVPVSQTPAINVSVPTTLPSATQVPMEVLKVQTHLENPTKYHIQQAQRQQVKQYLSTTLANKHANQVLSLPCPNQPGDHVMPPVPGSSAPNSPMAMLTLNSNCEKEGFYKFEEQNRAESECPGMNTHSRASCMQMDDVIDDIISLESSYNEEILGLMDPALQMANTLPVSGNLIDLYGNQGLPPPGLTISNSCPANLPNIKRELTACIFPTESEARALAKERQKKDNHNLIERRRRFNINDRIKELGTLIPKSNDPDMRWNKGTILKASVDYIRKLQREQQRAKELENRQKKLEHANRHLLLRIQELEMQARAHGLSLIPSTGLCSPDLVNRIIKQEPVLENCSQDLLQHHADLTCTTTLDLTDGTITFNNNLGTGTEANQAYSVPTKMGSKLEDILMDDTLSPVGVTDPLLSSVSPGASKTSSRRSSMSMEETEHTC

Beta-galactosidase = Beta-galactosidase (Escherichia coli, UniProt Q8VNN2); assay: PubChem AID 485352; format: functional
A-375 = assay: proliferation inhibition in MITF-low A375 cells – cell-based, cherry-pick samples, set 2, counter-screen for MITF modulator project, dose response (AID 540335); format: functional; conditions: Homo sapiens
[11] = biological target: Luciferin 4-monooxygenase (Photinus pyralis, UniProt P08659); assay: inhibition of purified Photinus pyralis luciferase – biochemical, luminescence, dose response (AID 1891)
Escherichia coli = assay: microbe, parasite or virus in culture
Nonstructural protein 1 = Nonstructural protein 1 (Influenza A virus, UniProt Q194T2); format: functional, Influenza A virus (A/California/07/2009(H1N1))
MDCK [12] = assay: antiviral activity against H1N1 influenza, dose response, cell-based, strain KY136 (AID 540257); format: functional; conditions: Canis lupus familiaris
MDCK [13] = assay: antiviral activity against H1N1 influenza, dose response, cell-based, strain KY180 (AID 540254); format: functional; conditions: Canis lupus familiaris
[14] = biological target: Glycogen synthase kinase-3 beta (Homo sapiens, UniProt P49841); assay: Inhibition of Human GSK-3 beta Activity Measured in Biochemical System Using Microfluidics - 2063-05_Inhibitor_Dose_DryPowder_Activity. [Related pubchem assays (depositor defined):AID2709]
[15] = biological target: Glycogen synthase kinase-3 alpha (Homo sapiens, UniProt P49840); assay: Inhibition of Human GSK-3 alpha Activity Measured in Biochemical System Using Microfluidics - 2063-06_Inhibitor_Dose_DryPowder_Activity. [Related pubchem assays (depositor defined):AID2709]
HEK293 [16] = assay: cells; format: functional, cell-based; conditions: Homo sapiens
Jurkat [17] = assay: blockers of NF-kB activation in T cells – Jurkat, luciferase reporter, luminescence, B- and T-cell, dose response (AID 489004); format: functional, cell-based; conditions: Homo sapiens;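 also: NF-kB luciferase reporter Jurkat cells stimulated with PMA plus ionomycin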
[18] = biological target: Nucleotide-binding oligomerization domain-containing protein 2 (Homo sapiens, UniProt Q9HC29); assay: inhibition of NOD2-driven NF-kB reporter – cell-based, luminescence, uHTS, HEK293 (AID 1566); format: functional
INS1 = assay: INS-1E survival protection against cytokine death – cell-based, luminescence, retest, dose response (AID 449756); format: functional; conditions: Rattus norvegicus;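 also: cell death triggered by IL-1 beta plus TNF-alpha plus IFN-gamma mixture; protective hits raise ATP signal compared with cytokine alone wells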
HEK293 [19] = assay: NOD2 signaling inhibitors in MDP-stimulated cells, cell-based, uHTS, luminescence (AID 2001); format: functional; conditions: Homo sapiens
HEK293 [20] = assay: cells; format: functional, cell-based; conditions: Homo sapiens; remark: listed apart in the source
[21] = biological target: T3, COUP transcription factor 2 (Homo sapiens, UniProt P24468); assay: Luminescence-based cell-based high throughput dose response assay to identify inhibitors of COUP-TFII (NR2F2).; format: functional;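 also: HEK293 cells transiently cotransfected with COUP-TFII expression vector and reporter; luciferase reporter luminescence driven by COUP-TFII from the pX2-168 reporter plasmid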
T3 sequence (P24468 whole entry): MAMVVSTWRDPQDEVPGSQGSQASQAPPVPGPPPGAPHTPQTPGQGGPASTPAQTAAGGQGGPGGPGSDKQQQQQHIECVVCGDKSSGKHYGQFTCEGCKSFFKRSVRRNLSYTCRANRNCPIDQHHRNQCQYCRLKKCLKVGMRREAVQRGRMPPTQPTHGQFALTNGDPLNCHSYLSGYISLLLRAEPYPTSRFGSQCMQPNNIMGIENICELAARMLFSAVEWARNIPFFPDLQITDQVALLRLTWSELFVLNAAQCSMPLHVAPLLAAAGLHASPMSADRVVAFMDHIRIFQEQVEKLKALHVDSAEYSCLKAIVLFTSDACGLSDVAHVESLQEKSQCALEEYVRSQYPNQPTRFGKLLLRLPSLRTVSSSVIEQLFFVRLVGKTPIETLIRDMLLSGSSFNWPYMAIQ

HEK293 [22] = assay: inhibition of NOD1-driven NF-kB reporter – cell-based, luminescence, uHTS, primary screen (AID 1578); format: functional; conditions: Homo sapiens
HEK293 [23] = assay: cells; format: functional, cell-based; conditions: Homo sapiens; remark: listed apart in the source
[24] = HEK-293T viability loss, compound-treated – cell-based, uHTS hits, cytotoxicity control for B/T-cell NF-kB inhibitor project, dose response (AID 489019); format: functional;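 also: IC50 reflects cytotoxicity as loss of cell viability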
HEK293 [25] = assay: HEK293T cell viability loss, resazurin readout – resazurin fluorescence, cytotoxicity control for NF-kB activator project, SAR follow-up (AID 493251); format: functional, cell-based; conditions: Homo sapiens
HEK293 [26] = assay: SAR Analysis of small molecule inhibitors of T-cell specific antigen receptor-induced NF-kB activation in a HEK-293T cell line using a luminescence assay - Set 2. [Related pubchem assays (depositor defined):AID435003, AID435012, AID489026]; format: functional, cell-based; conditions: Homo sapiens
Jurkat [27] = assay: SAR Analysis of small molecule inhibitors of T-cell specific antigen receptor-induced NF-kB activation in a Jurkat cell line using a luminescence assay - Set 2. [Related pubchem assays (depositor defined):AID435003, AID435012, AID465]; format: functional, cell-based; conditions: Homo sapiens
Candida albicans [28] = assay: fluconazole-resistant Candida strain growth inhibitors – CaCi-8 strain, dry powder, set 4, dose response (AID 488950); format: functional, organism-based
Candida albicans [29] = assay: C. albicans growth inhibition with fluconazole – CaCi-2 strain, Alamar Blue, dry powder, set 4, dose response (AID 488943); format: functional, organism-based
Candida albicans [30] = assay: Candida growth reduction in fluconazole presence – CaCi-2 strain, Alamar Blue, dry powder, set 2, antifungal resistance reversal project, dose response (AID 488930); format: functional, organism-based
Candida albicans [31] = assay: resistant Candida growth with fluconazole co-treatment – CaCi-8 strain, Alamar Blue, dry powder, set 2, dose response (AID 488909); format: functional, organism-based

Chain of Nucleotide-binding oligomerization domain-containing protein 2 (Q9HC29 whole entry, the tested form may be a part): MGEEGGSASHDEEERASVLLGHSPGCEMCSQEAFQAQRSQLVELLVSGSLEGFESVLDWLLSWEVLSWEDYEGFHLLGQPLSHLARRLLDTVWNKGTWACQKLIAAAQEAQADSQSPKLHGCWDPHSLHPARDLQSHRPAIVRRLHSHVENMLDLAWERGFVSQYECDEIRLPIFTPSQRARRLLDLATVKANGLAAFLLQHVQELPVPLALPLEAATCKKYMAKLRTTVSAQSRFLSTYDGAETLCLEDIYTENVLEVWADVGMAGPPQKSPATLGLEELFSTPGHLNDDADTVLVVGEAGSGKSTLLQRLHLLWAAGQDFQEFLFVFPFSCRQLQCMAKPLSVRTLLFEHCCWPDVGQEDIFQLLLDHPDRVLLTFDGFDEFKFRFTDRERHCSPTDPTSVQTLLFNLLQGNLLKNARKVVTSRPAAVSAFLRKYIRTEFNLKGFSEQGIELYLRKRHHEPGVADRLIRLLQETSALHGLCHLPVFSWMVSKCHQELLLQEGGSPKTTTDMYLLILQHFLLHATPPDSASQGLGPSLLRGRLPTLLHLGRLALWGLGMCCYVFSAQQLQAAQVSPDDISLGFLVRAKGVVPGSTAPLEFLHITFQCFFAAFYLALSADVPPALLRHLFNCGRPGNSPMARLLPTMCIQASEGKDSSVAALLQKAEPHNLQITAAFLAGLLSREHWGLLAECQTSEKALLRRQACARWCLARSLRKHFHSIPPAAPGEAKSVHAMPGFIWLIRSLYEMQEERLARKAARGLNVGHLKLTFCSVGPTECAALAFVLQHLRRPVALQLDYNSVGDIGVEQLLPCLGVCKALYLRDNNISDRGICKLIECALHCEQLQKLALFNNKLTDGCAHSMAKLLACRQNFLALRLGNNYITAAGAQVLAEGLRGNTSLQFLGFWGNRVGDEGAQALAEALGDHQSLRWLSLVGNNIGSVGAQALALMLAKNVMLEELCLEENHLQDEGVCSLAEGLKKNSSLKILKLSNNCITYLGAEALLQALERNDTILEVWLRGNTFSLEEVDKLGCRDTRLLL
Chain of Beta-galactosidase (Q8VNN2 whole entry): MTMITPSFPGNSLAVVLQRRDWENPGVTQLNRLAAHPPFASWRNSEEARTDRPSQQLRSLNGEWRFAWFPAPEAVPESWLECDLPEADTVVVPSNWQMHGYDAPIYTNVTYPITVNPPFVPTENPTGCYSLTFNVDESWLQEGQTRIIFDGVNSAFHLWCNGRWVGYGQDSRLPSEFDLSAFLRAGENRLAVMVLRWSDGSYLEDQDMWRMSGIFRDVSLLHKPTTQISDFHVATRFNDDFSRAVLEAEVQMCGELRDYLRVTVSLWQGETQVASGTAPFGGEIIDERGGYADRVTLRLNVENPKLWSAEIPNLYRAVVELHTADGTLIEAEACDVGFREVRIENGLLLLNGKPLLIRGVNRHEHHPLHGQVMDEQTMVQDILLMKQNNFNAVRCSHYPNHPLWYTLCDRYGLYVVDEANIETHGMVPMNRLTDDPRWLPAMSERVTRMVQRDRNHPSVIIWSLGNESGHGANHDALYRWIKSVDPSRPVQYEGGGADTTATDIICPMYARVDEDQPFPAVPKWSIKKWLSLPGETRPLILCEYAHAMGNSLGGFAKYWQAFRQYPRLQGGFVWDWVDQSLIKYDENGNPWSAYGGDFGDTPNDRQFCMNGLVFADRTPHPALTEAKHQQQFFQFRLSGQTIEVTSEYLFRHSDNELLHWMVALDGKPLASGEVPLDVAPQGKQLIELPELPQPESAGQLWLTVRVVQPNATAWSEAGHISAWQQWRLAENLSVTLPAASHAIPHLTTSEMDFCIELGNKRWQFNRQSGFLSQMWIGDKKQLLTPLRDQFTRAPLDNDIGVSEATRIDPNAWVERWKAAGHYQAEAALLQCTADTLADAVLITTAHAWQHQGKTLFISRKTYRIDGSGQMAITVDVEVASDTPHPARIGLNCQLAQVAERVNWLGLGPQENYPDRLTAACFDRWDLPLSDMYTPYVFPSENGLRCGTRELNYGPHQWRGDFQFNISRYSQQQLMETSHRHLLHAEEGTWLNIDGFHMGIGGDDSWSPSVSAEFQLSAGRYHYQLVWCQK
Chain of Nonstructural protein 1 (Q194T2 whole entry): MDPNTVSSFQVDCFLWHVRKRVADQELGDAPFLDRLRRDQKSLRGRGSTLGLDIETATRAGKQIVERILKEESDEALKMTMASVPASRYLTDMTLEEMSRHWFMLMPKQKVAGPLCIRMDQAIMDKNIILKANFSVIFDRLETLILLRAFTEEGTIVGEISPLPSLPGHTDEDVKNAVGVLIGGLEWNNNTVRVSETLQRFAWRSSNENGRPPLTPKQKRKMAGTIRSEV
Chain of Luciferin 4-monooxygenase (P08659 whole entry): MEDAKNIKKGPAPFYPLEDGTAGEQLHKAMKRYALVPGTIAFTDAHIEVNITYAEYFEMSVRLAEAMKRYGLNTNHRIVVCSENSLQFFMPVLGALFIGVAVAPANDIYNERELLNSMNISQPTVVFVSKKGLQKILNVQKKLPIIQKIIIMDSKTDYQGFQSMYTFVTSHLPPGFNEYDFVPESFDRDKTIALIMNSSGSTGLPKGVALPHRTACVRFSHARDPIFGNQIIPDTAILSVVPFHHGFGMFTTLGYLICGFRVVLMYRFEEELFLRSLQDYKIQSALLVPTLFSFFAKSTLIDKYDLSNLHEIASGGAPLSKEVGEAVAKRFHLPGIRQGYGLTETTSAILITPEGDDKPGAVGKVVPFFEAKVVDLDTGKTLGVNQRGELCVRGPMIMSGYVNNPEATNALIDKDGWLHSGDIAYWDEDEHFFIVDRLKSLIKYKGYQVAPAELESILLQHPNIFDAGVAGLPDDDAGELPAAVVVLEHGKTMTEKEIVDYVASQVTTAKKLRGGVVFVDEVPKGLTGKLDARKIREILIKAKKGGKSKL
Chain of Glycogen synthase kinase-3 beta (P49841 whole entry): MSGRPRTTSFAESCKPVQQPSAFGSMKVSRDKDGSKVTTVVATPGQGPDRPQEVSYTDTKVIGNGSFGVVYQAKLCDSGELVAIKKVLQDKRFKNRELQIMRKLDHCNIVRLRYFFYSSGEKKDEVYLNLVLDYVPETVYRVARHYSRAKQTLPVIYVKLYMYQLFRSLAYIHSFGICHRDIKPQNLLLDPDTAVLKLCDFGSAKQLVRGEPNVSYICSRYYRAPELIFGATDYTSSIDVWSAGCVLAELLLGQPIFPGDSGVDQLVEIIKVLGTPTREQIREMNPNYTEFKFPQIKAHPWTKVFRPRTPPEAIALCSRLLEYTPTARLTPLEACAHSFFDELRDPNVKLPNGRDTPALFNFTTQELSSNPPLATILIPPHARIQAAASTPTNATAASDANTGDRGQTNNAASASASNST
Chain of Glycogen synthase kinase-3 alpha (P49840 whole entry): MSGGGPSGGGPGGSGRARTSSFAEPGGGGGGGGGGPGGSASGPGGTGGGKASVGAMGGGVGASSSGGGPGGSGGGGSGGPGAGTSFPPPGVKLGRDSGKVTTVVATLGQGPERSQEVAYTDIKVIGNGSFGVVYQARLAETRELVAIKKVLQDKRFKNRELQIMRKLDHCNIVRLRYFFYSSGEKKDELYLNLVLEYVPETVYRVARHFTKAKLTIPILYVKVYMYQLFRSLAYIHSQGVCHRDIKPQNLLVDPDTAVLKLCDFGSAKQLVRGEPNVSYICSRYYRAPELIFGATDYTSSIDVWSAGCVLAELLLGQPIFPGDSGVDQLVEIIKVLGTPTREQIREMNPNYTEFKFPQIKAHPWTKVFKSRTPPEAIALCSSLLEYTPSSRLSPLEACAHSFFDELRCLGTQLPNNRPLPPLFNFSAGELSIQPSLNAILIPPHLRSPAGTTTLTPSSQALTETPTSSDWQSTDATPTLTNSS

Structure (SMILES): COc1ccc(-c2cc3c(nn2)-c2ccccc2C3=O)cc1
- EC50 [1]: 0.375 µM (inconclusive)
- EC50 [2]: 6.87 µM (active)
- EC50 [3]: > 60 µM (not active)
- AC50 [4]: 4.41 µM (active)
- AC50 [5]: 29.2 µM (active)
- AC50 [6]: 23.4 µM (active)
- AC50 [7]: 5.11 µM (active)
- AC50 [8]: 15.8 µM (active)
- IC50 [9]: 6.98 µM (active)
- AC50 [10]: 4.22 µM (active)
- EC50 (Beta-galactosidase): > 40 µM (inactive)
- AC50 (A-375): 20.2 µM (active)
- EC50 [11]: 0.384 µM (active)

Structure (SMILES): CC(C)c1cc(C(=O)NCc2ccco2)no1
- AC50 (Escherichia coli): 46.2 µM (active)

Structure (SMILES): CN(C)c1cccc2c(C=C(C#N)C#N)ccc(N(C)C)c12
- IC50 (Nonstructural protein 1): 22.6 µM (active)
- IC50 (MDCK [12]): > 100 µM (active)
- IC50 (MDCK [13]): 15.9 µM (active)

Structure (SMILES): Nc1nc(NCCCN2CCOCC2)nc(Nc2cccc(F)c2)c1[N+](=O)[O-]
- AC50 [14]: 0.208 µM (active)
- AC50 [15]: 0.698 µM (active)

Structure (SMILES): O=S(=O)(NCC1CCCO1)c1ccc(-c2ccc(S(=O)(=O)NCC3CCCO3)cc2)cc1 (stereo unspecified)
- IC50 (HEK293 [16]): 5.37 µM (active)
- IC50 (Jurkat [17]): > 80 µM (inactive)
- EC50 [18]: > 20 µM (inactive)
- AC50 (INS1): 3.25 µM (active)
- IC50 (HEK293 [19]): 9.07 µM (active)
- IC50 (HEK293 [20]): > 20 µM (inactive)
- IC50 [21]: 2.02 µM (active)
- EC50 (HEK293 [22]): 1.65 µM (active)
- IC50 (HEK293 [23]): 19.9 µM (active)
- IC50 [24]: > 80 µM (inactive)

Structure (SMILES): COc1ccc(C(=O)Nc2ccc(NC(=O)c3cc4ccccc4o3)cc2)cc1Cl
- IC50 (HEK293 [25]): > 80 µM (inactive)
- IC50 (HEK293 [26]): > 80 µM (inactive)
- IC50 (Jurkat [27]): > 79 µM (inactive)

Structure (SMILES): O=C(c1ccc(Cl)cc1)C1CCN(c2ccnc3cc(Cl)ccc23)CC1
- AC50 (Candida albicans [28]): 0.579 µM (active)
- AC50 (Candida albicans [29]): 0.342 µM (active)
- AC50 (Candida albicans [30]): 0.663 µM (active)
- AC50 (Candida albicans [31]): 3.81 µM (active)
